From publication PMC7858579, “Biochemical and structural characterization of a recombinant fibrinogen-related lectin from Penaeus monodon” (Scientific Reports, 2021) come the findings set out here.

Each structure is given as a SMILES string.

For assay [1], the target named is T1, His6 PmFREP (PmFREP; PL5-1) (Penaeus monodon, UniProt A0A068LKH5, G184D).
T1 construct: full length without native signal peptide; XEEL signal peptide (cleaved), N-terminal His6 tag kept; native part starts GTTERTDTA (from primer); Trichoplusia ni cells; disulfide-linked dimer of pentamers
T1 sequence (A0A068LKH5 entry or part of it G184D): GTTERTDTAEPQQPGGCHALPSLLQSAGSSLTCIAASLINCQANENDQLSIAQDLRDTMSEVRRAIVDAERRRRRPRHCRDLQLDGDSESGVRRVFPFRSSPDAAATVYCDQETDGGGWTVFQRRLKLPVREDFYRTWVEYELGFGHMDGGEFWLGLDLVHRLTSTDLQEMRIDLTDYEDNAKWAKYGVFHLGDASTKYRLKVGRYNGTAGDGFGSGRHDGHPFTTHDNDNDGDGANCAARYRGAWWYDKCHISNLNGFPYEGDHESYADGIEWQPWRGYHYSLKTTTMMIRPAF
The assay is described as follows: binding to GlcNAc affinity resin and competitive elution, western blot. Particulars: 100 mM monosaccharide, 20 mM HEPES pH 7.5, 150 mM NaCl, 10 mM CaCl2. (In general: A western blot detects proteins with antibodies after separation by electrophoresis.)

For assay [2], the target named is T1, His6 PmFREP (PmFREP; PL5-1). The assay is described as follows: inhibition of human red blood cell (type A) agglutination. The format is cell-based. The conditions noted are these: 0.5 uM His6 PmFREP, 3% (v/v) red blood cells; multivalent avidity assay.

In the case of `CC(=O)N[C@H]1C(O)O[C@H](CO)[C@@H](O)[C@@H]1O` (some centres unmarked) [GlcNAc], in assay [1], the “binding to GlcNAc affinity resin and competitive elution, western blot” value was “His6 PmFREP can bind GlcNAc as expected for fibrinogen-like lectin”. The concentration inhibiting agglutination in assay [2] is ~ 10 mM.
Take `CC(=O)N[C@H]1[C@H]([C@H](O)[C@H](O)CO)OC(O)(C(=O)O)C[C@@H]1O` (some centres unmarked) [Neu5Ac, N-acetylneuraminic acid]: in assay [2], the concentration inhibiting agglutination came to 5 mM.
The same measure, in the same setting: the figure for `CC(=O)N[C@H]1C(O)O[C@H](CO)[C@H](O)[C@@H]1O` (some centres unmarked) [GalNAc, N-acetylgalactosamine] is ~ 10 mM; for `CC(=O)N[C@@H]1C(O)O[C@H](CO)[C@@H](O)[C@@H]1O` (some centres unmarked) [ManNAc, N-acetylmannosamine] it is 1 mM.
